A value given as a limit tells only on which side of the number the result lay.

recombinant CD73, sequence (P21589 27-547): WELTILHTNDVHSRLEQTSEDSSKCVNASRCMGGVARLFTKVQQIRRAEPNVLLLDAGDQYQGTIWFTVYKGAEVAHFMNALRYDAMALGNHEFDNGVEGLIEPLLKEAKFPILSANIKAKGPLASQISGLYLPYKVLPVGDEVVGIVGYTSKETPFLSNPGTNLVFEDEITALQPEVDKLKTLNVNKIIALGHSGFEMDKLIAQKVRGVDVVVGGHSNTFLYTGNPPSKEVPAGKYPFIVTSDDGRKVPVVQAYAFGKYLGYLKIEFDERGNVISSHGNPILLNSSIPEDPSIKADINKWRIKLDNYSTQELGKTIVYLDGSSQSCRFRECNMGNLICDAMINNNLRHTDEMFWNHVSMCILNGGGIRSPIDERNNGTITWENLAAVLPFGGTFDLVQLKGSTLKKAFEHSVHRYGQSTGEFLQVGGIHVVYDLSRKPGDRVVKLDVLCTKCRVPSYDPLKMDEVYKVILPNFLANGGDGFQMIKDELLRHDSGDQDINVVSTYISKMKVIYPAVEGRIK

This assay has as its target recombinant CD73 (Homo sapiens (Human), UniProt P21589). In words: Assay 2: Inhibition of the CD73 enzyme in vitro (0.05 nM CD73, 1 hour 37° C., Malachite Green). In kind it is biochemical. As to conditions: 0.05 nM CD73, 50 μM AMP, 1 hour at 37° C. The procedure: For measurements of soluble CD73 enzyme activity, recombinant CD73 was obtained from R&D Systems, Cat. No. 5795-EN-010. […] Reactions were allowed to proceed for 1 hour at 37° C. before the addition of 100 μL Malachite Green (Cell Signaling Technology, Cat. No. 12776). After 5 minutes at room temperature, absorbance at 630 nm was determined on a microplate spectrophotometer. The concentration of inorganic phosphate was determined using a phosphate standard curve.
On to `C#C[C@@]1(O)[C@@H](COC(Cc2ccccc2)(C(=O)O)C(=O)O)O[C@@H](n2cnc3c(N4CC[C@@H](O)C4)nc(Cl)nc32)[C@@H]1O` [Example 100, 2-benzyl-2-(((2R,3S,4R,5R)-5-(2-chloro-6-((R)-3-hydroxypyrrolidin-1-yl)-9H-purin-9-yl)-3-ethynyl-3,4-dihydroxytetrahydrofuran-2-yl)methoxy)malonic acid], for which the IC50 – broadly, the concentration needed to halve the response being measured – is 2 nM.
The figure for `C#C[C@@]1(O)[C@@H](COC(Cc2ccccc2)(C(=O)O)C(=O)O)O[C@@H](n2cnc3c(CCCC(=O)O)nc(Cl)nc32)[C@@H]1O` [Example 163, 2-benzyl-2-(((2R,3S,4R,5R)-5-(6-(3-carboxypropyl)-2-chloro-9H-purin-9-yl)-3-ethynyl-3,4-dihydroxytetrahydrofuran-2-yl)methoxy)malonic acid] is > 100 nM.
For the molecule `C#C[C@@]1(O)[C@@H](COC(Cc2ccccc2)(C(=O)O)C(=O)O)O[C@@H](n2cnc3c(N[C@H](C)c4ccccc4)nc(Cl)nc32)[C@@H]1O` [Example 62, 2-benzyl-2-(((2R,3S,4R,5R)-5-(2-chloro-6-(((R)-1-phenylethyl)amino)-9H-purin-9-yl)-3-ethynyl-3,4-dihydroxytetrahydrofuran-2-yl)methoxy)malonic acid], the IC50 is 2 nM.
The figure for `C#C[C@@]1(O)[C@@H](COC(Cc2ccc(-c3cccn(CCO)c3=O)cc2)(C(=O)O)C(=O)O)O[C@@H](n2cnc3c(N)nc(Cl)nc32)[C@@H]1O` [Example 21, 2-(((2R,3S,4R,5R)-5-(6-amino-2-chloro-9H-purin-9-yl)-3-ethynyl-3,4-dihydroxytetrahydrofuran-2-yl)methoxy)-2-(4-(1-(2-hydroxyethyl)-2-oxo-1,2-dihydropyridin-3-yl)benzyl)malonic acid] is 0.3 nM; for `C#C[C@@]1(O)[C@@H](COC(Cc2ccc(NCCN(C)CC(=O)O)cc2)(C(=O)O)C(=O)O)O[C@@H](n2cnc3c(N)nc(Cl)nc32)[C@@H]1O` [Example 155, 2-(((2R,3S,4R,5R)-5-(6-amino-2-chloro-9H-purin-9-yl)-3-ethynyl-3,4-dihydroxytetrahydrofuran-2-yl)methoxy)-2-(4-((2-((carboxymethyl)(methyl)amino)ethyl)amino)benzyl)malonic acid] it is 2 nM; for `C#C[C@@]1(O)[C@@H](COC(Cc2cncs2)(C(=O)O)C(=O)O)O[C@@H](n2cnc3c(N)nc(Cl)nc32)[C@@H]1O` [Example 143, 2-(((2R,3S,4R,5R)-5-(6-amino-2-chloro-9H-purin-9-yl)-3-ethynyl-3,4-dihydroxytetrahydrofuran-2-yl)methoxy)-2-(thiazol-5-ylmethyl)malonic acid] it is 13 nM.
The same measure for `C#C[C@@]1(O)[C@@H](COC(Cc2ccccc2)(C(=O)O)C(=O)O)O[C@@H](n2cnc3c(NC4CCOC4)nc(Cl)nc32)[C@@H]1O` (stereo partly drawn) [Example 64, 2-benzyl-2-(((2R,3S,4R,5R)-5-(2-chloro-6-((tetrahydrofuran-3-yl)-amino)-9H-purin-9-yl)-3-ethynyl-3,4-dihydroxytetrahydrofuran-2-yl)methoxy)-malonic acid]: 3 nM.
The same measure for `C#C[C@@]1(O)[C@@H](COC(Cc2ccc(-c3ccc[nH]c3=O)cc2)(C(=O)O)C(=O)O)O[C@@H](n2cnc3c(N)nc(Cl)nc32)[C@@H]1O` [Example 12, 2-(((2R,3S,4R,5R)-5-(6-amino-2-chloro-9H-purin-9-yl)-3-ethynyl-3,4-dihydroxytetrahydrofuran-2-yl)methoxy)-2-(4-(2-oxo-1,2-dihydropyridin-3-yl)benzyl)malonic acid]: 0.1 nM; for `C#C[C@@H]1[C@@H](O)[C@H](n2cnc3c(N)nc(Cl)nc32)O[C@@H]1COC(Cc1ccccc1)(C(=O)O)C(=O)O` [Compound 2, 2-(((2S,3R,4R,5R)-5-(6-amino-2-chloro-9H-purin-9-yl)-3-ethynyl-4-hydroxytetrahydrofuran-2-yl)methoxy)-2-benzylmalonic acid]: 147 nM.

These data come from US11078228B2, “Ectonucleotidase inhibitors and methods of use thereof” (Calithera Biosciences, Inc., priority 2018, dated 2021).
